{
  "source": "patent US20100016213A1",
  "about": "“USE OF A DITERPENOID COMPOUND FOR TREATING DIABETES” (National Taiwan University, priority 2008, published 2010)",
  "type_in_all_cases": "in vivo",
  "key": {"[1]": {"tested_on": "Diet-induced diabetic (NIDDM) mice", "experiment": "Plasma insulin levels before and after treatment (Insulin ELISA), diet-induced diabetic mice", "conditions": "for Plasma insulin, Pre-treatment: before treatment; for Plasma insulin, post-treatment: one hour after treatment", "protocol": "(§1) Normal mice, STZ-induced diabetic mice, and diet-induced diabetic mice were administered with a vehicle control, borapetoside A (5.0 mg/kg), borapetoside C (at various doses), glibenclamide (5.0 mg/kg) or metformin (500 mg/kg) by intraperitoneal injection. These mice were examined for their blood insulin levels before and one hour after treatment, using the Insulin(Rat) ELISA kit obtained from Penisula Lab. Inc., San Carlos, Calif., USA."}, "[2]": {"tested_on": "DIO-induced diabetic mice(NIDDM)", "experiment": "Glycogen content in skeletal muscle, DIO-induced diabetic mice", "conditions": "5 mg/kg i.p., 30 minutes after injection", "protocol": "Normal, STZ-induced diabetic, and DIO-induced diabetic mice were intraeritoneally injected with borapetoside C (5 mg/kg) and Actrapid (0.5 IU/kg; a short-acting insulin provided by Novo Nordisk) or metformin (500 mg/kg). Their glycogen contents in skeletal muscle were determined 30 minutes after injections."}, "[3]": {"tested_on": "DIO-induced diabetic mice", "experiment": "Insulin sensitivity: plasma glucose reduction with insulin plus borapetoside C or vehicle, DIO-induced diabetic mice", "conditions": "thirty minutes after insulin", "protocol": "(§2) The effect of borapetoside C on insulin sensitivity was tested following the method described in Liu, et al., Clinical and Experimental Pharmacology and Physiology 2005; 32: 649-654. Normal mice (n=6), STZ-induced diabetic mice (n=5), and DIO-induced diabetic mice (n=7) were treated with insulin at various doses (i.e., 0.1 IU/kg, 0.5 IU/kg, and 1.0 IU/kg) together with either borapetoside C (0.1 mg/kg) or a vehicle control. Their plasma glucose levels were examined before and thirty minutes after insulin administration. The activity of lowering plasma glucose levels (AL) was calculated following the formula described in Example 2 above."}, "normal mice [4]": {"tested_on": "normal mice", "experiment": "Lowering plasma glucose level, intraperitoneal injection, normal mice", "conditions": "for Plasma Glucose Level, After / Plasma Glucose Level, Before: Normal mice; for Plasma Glucose Level, After: after treatment; for Plasma Glucose Level, Before: before treatment", "protocol": "Normal and streptozotocin (STZ)-induced diabetic mice were administered with borapetoside A (5.0 mg/kg), borapetoside C (5.0 mg/kg), glibenclamide (5.0 mg/kg), metformin (500.0 mg/kg), or a vehicle control via intraperitoneal injection. STZ-induced diabetic mice are a well-known mouse model of type I diabetes (insulin dependent). See, e.g., Liu I M, et al., Neuroscience Letters 2001; 307: 81-84. Glibenclamide and metformin serve as two positive controls in this study.\nThe plasma glucose levels of the treated mice were determined before and one hour after administration. The activity of lowering plasma glucose levels (AL) is calculated following the formula: […]\nBorapetoside C was administered to normal mice at 0.1, 1.0, 3.0, and 5.0 mg/kg and to STZ-diabetic mice at 0.1, 1.0, 3.0, and 5.0 mg/kg. The plasma glucose levels of the treated mice were examined before and after treatment."}, "normal mice [5]": {"tested_on": "normal mice", "experiment": "Lowering plasma glucose levels via oral administration, normal mice", "conditions": "oral 10.0 mg/kg, sixty minutes after treatment, mean ± SEM, six animals", "protocol": "(§3) Normal, STZ-induced diabetic mice, and diet-induced diabetic mice were administered orally with 10.0 mg/kg borapetoside C, glibenclamide or metformin as a positive control, and a vehicle control. The plasma glucose levels of the treated mice were determined before and sixty minutes after treatment and the results thus obtained were shown in Table 3 below."}, "normal mice [6]": {"tested_on": "normal mice", "experiment": "Insulin sensitivity: plasma glucose reduction with insulin plus borapetoside C or vehicle, normal mice", "conditions": "thirty minutes after insulin", "protocol": "as §2"}, "[7]": {"tested_on": "Diet-induced diabetic mice (NIDDM)", "experiment": "Lowering plasma glucose levels via oral administration, diet-induced diabetic mice", "conditions": "oral 10.0 mg/kg, sixty minutes after treatment, mean ± SEM, six animals", "protocol": "as §3"}, "[8]": {"tested_on": "liver phosphoenolpyruvate carboxykinase (PEPCK)", "experiment": "Liver PEPCK levels by western blot in STZ-induced mice", "conditions": "borapetoside C 5.0 mg/kg, twice per day for 7 days, insulin dose not given", "protocol": "To characterize the effect of borapetoside C on liver glucose utilization, levels of liver phosphoenolpyruvate carboxykinase (PEPCK) were examined by western blot analysis in STZ-induced mice treated with borapetoside C (5.0 mg/kg, twice per day for 7 days), insulin, or a vehicle control."}, "normal mice [9]": {"tested_on": "normal mice", "experiment": "Plasma insulin levels before and after treatment (Insulin ELISA), normal mice", "conditions": "for Plasma insulin, Pre-treatment: before treatment; for Plasma insulin, post-treatment: one hour after treatment", "protocol": "as §1"}, "STZ-diabetic mice (IDDM)": {"tested_on": "STZ-diabetic mice (IDDM)", "experiment": "Plasma insulin levels before and after treatment (Insulin ELISA), STZ-diabetic mice", "conditions": "for Plasma insulin, Pre-treatment: before treatment; for Plasma insulin, post-treatment: one hour after treatment", "protocol": "as §1"}, "[10]": {"conditions": "Borapetoside C 0.1 mg/kg together with Insulin 0.1 IU/kg"}, "[11]": {"conditions": "Borapetoside C 0.1 mg/kg together with Insulin 0.5 IU/kg"}, "[12]": {"conditions": "Borapetoside C 0.1 mg/kg together with Insulin 1.0 IU/kg"}},
  "data": [
    {"smiles": "COC(=O)C1=CCC[C@H]2[C@]3(C)C[C@@H](c4ccoc4)OC(=O)[C@@H]3C[C@@H](O[C@@H]3O[C@H](CO)[C@@H](O)[C@H](O)[C@H]3O)[C@@]12C", "note": "[borapetoside C]", "values": [
      {"measurement": "Plasma insulin, Pre-treatment", "setting": "[1]; 0.1 mg/kg i.p.", "result": "110.3 ± 4.5", "unit": "pmol/L"},
      {"measurement": "Plasma insulin, post-treatment", "setting": "[1]; 0.1 mg/kg i.p.", "result": "114.0 ± 7.6", "unit": "pmol/L"},
      {"measurement": "Plasma insulin, Pre-treatment", "setting": "[1]; 0.5 mg/kg i.p.", "result": "116.5 ± 5.7", "unit": "pmol/L"},
      {"measurement": "Plasma insulin, post-treatment", "setting": "[1]; 0.5 mg/kg i.p.", "result": "174.7 ± 4.8", "unit": "pmol/L"},
      {"measurement": "Plasma insulin, Pre-treatment", "setting": "[1]; 1.0 mg/kg i.p.", "result": "111.1 ± 2.0", "unit": "pmol/L"},
      {"measurement": "Plasma insulin, post-treatment", "setting": "[1]; 1.0 mg/kg i.p.", "result": "178.5 ± 14.6", "unit": "pmol/L"},
      {"measurement": "Plasma insulin, Pre-treatment", "setting": "[1]; 3.0 mg/kg i.p.", "result": "113.2 ± 2.8", "unit": "pmol/L"},
      {"measurement": "Plasma insulin, post-treatment", "setting": "[1]; 3.0 mg/kg i.p.", "result": "254.0 ± 23.4", "unit": "pmol/L"},
      {"measurement": "Plasma insulin, Pre-treatment", "setting": "[1]; 5.0 mg/kg i.p.", "result": "107.4 ± 5.5", "unit": "pmol/L"},
      {"measurement": "Plasma insulin, post-treatment", "setting": "[1]; 5.0 mg/kg i.p.", "result": "255.8 ± 15.9", "unit": "pmol/L"},
      {"measurement": "Glycogen content (μmol/g wet weight)", "setting": "[2]", "result": "23.3 ± 0.4", "unit": "μmol/g wet weight"},
      {"measurement": "AL (%)", "setting": "[3]; [10]", "result": "24.0 ± 1.1", "unit": "%"},
      {"measurement": "AL (%)", "setting": "[3]; [11]", "result": "31.6 ± 1.6", "unit": "%"},
      {"measurement": "AL (%)", "setting": "[3]; [12]", "result": "42.5 ± 0.8", "unit": "%"},
      {"measurement": "Plasma Glucose Level, After", "setting": "normal mice [4]; 0.1 mg/kg", "result": "97.7 ± 6.2", "unit": "mg/dL"},
      {"measurement": "Plasma Glucose Level, Before", "setting": "normal mice [4]; 0.1 mg/kg", "result": "99.7 ± 3.8", "unit": "mg/dL"},
      {"measurement": "Plasma Glucose Level, After", "setting": "normal mice [4]; 1.0 mg/kg", "result": "82.6 ± 2.9", "unit": "mg/dL"},
      {"measurement": "Plasma Glucose Level, Before", "setting": "normal mice [4]; 1.0 mg/kg", "result": "96.4 ± 4.2", "unit": "mg/dL"},
      {"measurement": "Plasma Glucose Level, After", "setting": "normal mice [4]; 3.0 mg/kg", "result": "79.4 ± 6.9", "unit": "mg/dL"},
      {"measurement": "Plasma Glucose Level, Before", "setting": "normal mice [4]; 3.0 mg/kg", "result": "96.3 ± 8.0", "unit": "mg/dL"},
      {"measurement": "Plasma Glucose Level, After", "setting": "normal mice [4]; 5.0 mg/kg", "result": "67.0 ± 4.5", "unit": "mg/dL"},
      {"measurement": "Plasma Glucose Level, Before", "setting": "normal mice [4]; 5.0 mg/kg", "result": "98.2 ± 3.9", "unit": "mg/dL"},
      {"measurement": "Activities of Lowering Plasma Glucose Levels (AL)", "setting": "normal mice [4]; normal mice, 5.0 mg/kg intraperitoneal injection, one hour after administration", "result": "36.2 ± 5.6", "unit": "%"},
      {"measurement": "Activity of lowing plasma glucose levels (%)", "setting": "normal mice [5]", "result": "23.1 ± 2.8", "unit": "%"},
      {"measurement": "AL (%)", "setting": "normal mice [6]; [10]", "result": "17.2 ± 1.2", "unit": "%"},
      {"measurement": "AL (%)", "setting": "normal mice [6]; [11]", "result": "45.7 ± 3.7", "unit": "%"},
      {"measurement": "AL (%)", "setting": "normal mice [6]; [12]", "result": "64.7 ± 1.8", "unit": "%"},
      {"measurement": "Activity of lowing plasma glucose levels (%)", "setting": "[7]", "result": "28.2 ± 3.1", "unit": "%"},
      {"measurement": "liver PEPCK levels versus vehicle control-treated mice (western blot)", "setting": "[8]", "result": "much lower"},
      {"measurement": "Plasma insulin, Pre-treatment", "setting": "normal mice [9]; 0.1 mg/kg i.p.", "result": "54.0 ± 3.4", "unit": "pmol/L"},
      {"measurement": "Plasma insulin, post-treatment", "setting": "normal mice [9]; 0.1 mg/kg i.p.", "result": "71.5 ± 5.3", "unit": "pmol/L"},
      {"measurement": "Plasma insulin, Pre-treatment", "setting": "normal mice [9]; 0.5 mg/kg i.p.", "result": "52.2 ± 3.0", "unit": "pmol/L"},
      {"measurement": "Plasma insulin, post-treatment", "setting": "normal mice [9]; 0.5 mg/kg i.p.", "result": "65.7 ± 9.8", "unit": "pmol/L"},
      {"measurement": "Plasma insulin, Pre-treatment", "setting": "normal mice [9]; 1.0 mg/kg i.p.", "result": "58.9 ± 3.5", "unit": "pmol/L"},
      {"measurement": "Plasma insulin, post-treatment", "setting": "normal mice [9]; 1.0 mg/kg i.p.", "result": "65.0 ± 6.0", "unit": "pmol/L"},
      {"measurement": "Plasma insulin, Pre-treatment", "setting": "normal mice [9]; 3.0 mg/kg i.p.", "result": "52.0 ± 3.7", "unit": "pmol/L"},
      {"measurement": "Plasma insulin, post-treatment", "setting": "normal mice [9]; 3.0 mg/kg i.p.", "result": "142.6 ± 29.2", "unit": "pmol/L"},
      {"measurement": "Plasma insulin, Pre-treatment", "setting": "normal mice [9]; 5.0 mg/kg i.p.", "result": "56.6 ± 2.3", "unit": "pmol/L"},
      {"measurement": "Plasma insulin, post-treatment", "setting": "normal mice [9]; 5.0 mg/kg i.p.", "result": "139.4 ± 25.5", "unit": "pmol/L"},
      {"measurement": "Plasma insulin, Pre-treatment", "setting": "STZ-diabetic mice (IDDM); 0.1 mg/kg i.p.", "result": "15.2 ± 0.8", "unit": "pmol/L"},
      {"measurement": "Plasma insulin, post-treatment", "setting": "STZ-diabetic mice (IDDM); 0.1 mg/kg i.p.", "result": "16.3 ± 0.9", "unit": "pmol/L"},
      {"measurement": "Plasma insulin, Pre-treatment", "setting": "STZ-diabetic mice (IDDM); 0.5 mg/kg i.p.", "result": "15.5 ± 0.6", "unit": "pmol/L"},
      {"measurement": "Plasma insulin, post-treatment", "setting": "STZ-diabetic mice (IDDM); 0.5 mg/kg i.p.", "result": "15.9 ± 0.6", "unit": "pmol/L"},
      {"measurement": "Plasma insulin, Pre-treatment", "setting": "STZ-diabetic mice (IDDM); 1.0 mg/kg i.p.", "result": "15.7 ± 0.8", "unit": "pmol/L"},
      {"measurement": "Plasma insulin, post-treatment", "setting": "STZ-diabetic mice (IDDM); 1.0 mg/kg i.p.", "result": "15.9 ± 0.4", "unit": "pmol/L"},
      {"measurement": "Plasma insulin, Pre-treatment", "setting": "STZ-diabetic mice (IDDM); 3.0 mg/kg i.p.", "result": "13.8 ± 1.6", "unit": "pmol/L"},
      {"measurement": "Plasma insulin, post-treatment", "setting": "STZ-diabetic mice (IDDM); 3.0 mg/kg i.p.", "result": "14.8 ± 0.5", "unit": "pmol/L"},
      {"measurement": "Plasma insulin, Pre-treatment", "setting": "STZ-diabetic mice (IDDM); 5.0 mg/kg i.p.", "result": "15.0 ± 0.5", "unit": "pmol/L"},
      {"measurement": "Plasma insulin, post-treatment", "setting": "STZ-diabetic mice (IDDM); 5.0 mg/kg i.p.", "result": "14.4 ± 0.6", "unit": "pmol/L"}
    ]}
  ]
}
